From patent US10266548B2, “Substituted benzylindazoles for use as Bub1 kinase inhibitors in the treatment of hyperproliferative diseases” (Bayer Intellectual Property GmbH, priority 2011, dated 2019)
Structures can show the parent of a compound that is named as a salt. Where two headings read alike, the source gives them in different places.

Legend:
[1] = target: catalytic domain of human Bub1 (amino acids 704-1085) (Homo sapiens (Human), UniProt O43683); experiment: Bub1 kinase assay (TR-FRET); format: biochemical; conditions: 10 μM ATP, 1 μM peptide substrate; read-out: Biological Assay 1: Bub1 kinase assay median IC50
Summary of the method: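 Phosphoserine product detected by TR-FRET (Eu-labeled anti-mouse IgG/anti-phosphoserine antibody to streptavidin-XL665) after 1 h at 22 °C. IC50 from 4-parameter logistic fit.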

HeLa cells = experiment: Proliferation assay (HeLa cell line); format: cell-based; conditions: read-out: Biological Assay 2: Proliferation assay (HeLa cell line) median IC50
[2] = Homo sapiens, 96 h, 4 days, crystal violet

catalytic domain of human Bub1 (amino acids 704-1085), sequence (O43683 704-1085): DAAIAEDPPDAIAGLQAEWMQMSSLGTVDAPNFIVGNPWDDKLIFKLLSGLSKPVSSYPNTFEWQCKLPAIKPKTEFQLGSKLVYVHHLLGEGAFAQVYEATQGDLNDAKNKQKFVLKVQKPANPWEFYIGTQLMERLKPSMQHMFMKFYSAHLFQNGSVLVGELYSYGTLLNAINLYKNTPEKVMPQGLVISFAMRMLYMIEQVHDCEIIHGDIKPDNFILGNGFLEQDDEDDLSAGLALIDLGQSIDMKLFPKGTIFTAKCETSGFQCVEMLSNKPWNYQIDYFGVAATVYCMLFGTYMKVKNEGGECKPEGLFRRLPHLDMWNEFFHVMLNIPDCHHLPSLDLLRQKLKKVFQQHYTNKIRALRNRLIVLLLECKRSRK

Row | Compound | IC50 [1] | IC50 (HeLa cells; [2]) | IC50 (HeLa cells; Homo sapiens, 96 h) | IC50 (HeLa cells; 4 days, crystal violet)
1 | COc1cnc(-c2nn(Cc3ccc(C)c(F)c3F)c3ccccc23)nc1Nc1ccncc1 [Example 2-8-1, 2-[1-(2,3-difluoro-4-methylbenzyl)-1H-indazol-3-yl]-5-methoxy-N-(pyridin-4-yl)pyrimidin-4-amine] | 6.7 nM | ≥ 10000 nM | – | –
2 | OC[C@@H](O)COc1cnc(-c2nn(Cc3ccccc3F)c3ccccc23)nc1Nc1ccncc1 [Example 12-2, (2R)-3-({2-[1-(2-fluorobenzyl)-1H-indazol-3-yl]-4-(pyridin-4-ylamino)pyrimidin-5-yl}oxy)propane-1,2-diol] | 4.6 nM | – | ≥ 10000 nM | –
3 | COc1cnc(-c2nn(Cc3cc(F)ccc3Cl)c3ccccc23)nc1Nc1ccncc1 [Example 2-31-1, 2-[1-(2-chloro-5-fluorobenzyl)-1H-indazol-3-yl]-5-methoxy-N-(pyridin-4-yl)pyrimidin-4-amine] | 28 nM | ≥ 10000 nM | – | –
4 | COc1cnc(-c2nn(Cc3ccccc3Cl)c3ccccc23)nc1Nc1ccncc1 [Example 2-10-1, 2-[1-(2-chlorobenzyl)-1H-indazol-3-yl]-5-methoxy-N-(pyridin-4-yl)pyrimidin-4-amine] | 6.7 nM | – | ≥ 10000 nM | –
5 | COc1cnc(-c2nn(Cc3c(F)cc(Br)cc3OCC(F)(F)F)c3ccccc23)nc1Nc1ccncc1 [Example 18-1, 2-{1-[4-bromo-2-fluoro-6-(2,2,2-trifluoroethoxy)benzyl]-1H-indazol-3-yl}-5-methoxy-N-(pyridin-4-yl)pyrimidin-4-amine] | 16 nM | 1400 nM | – | –
6 | CCOc1cc(F)c(Cn2nc(-c3ncc(OC)c(Nc4ccncc4)n3)c3c(C)cccc32)c(F)c1 [Example 42-1, 2-[1-(4-ethoxy-2,6-difluorobenzyl)-4-methyl-1H-indazol-3-yl]-5-methoxy-N-(pyridin-4-yl)pyrimidin-4-amine] | 6.7 nM | 3600 nM | – | –
7 | COc1cnc(-c2nn(Cc3c(Cl)cccc3Cl)c3ccccc23)nc1Nc1ccncc1 [Example 15-4, 2-[1-(2,6-dichlorobenzyl)-1H-indazol-3-yl]-5-methoxy-N-(pyridin-4-yl)pyrimidin-4-amine hydrochloride (1:1)] | 7.3 nM | – | ≥ 10000 nM | –
8 | COc1cnc(-c2nn(Cc3ccc(S(F)(F)(F)(F)F)cc3)c3ccccc23)nc1Nc1ccncc1 [Example 2-3-3, 5-methoxy-2-{1-[4-(pentafluoro-λ^6-sulfanyl)benzyl]-1H-indazol-3-yl}-N-(pyridin-4-yl)pyrimidin-4-amine] | 360 nM | 8500 nM | – | –
9 | CCOc1cc(F)c(Cn2nc(-c3ncc(OCC(F)(F)F)c(Nc4ccncc4)n3)c3ccccc32)c(F)c1 [Example 11-2, 2-[1-(4-ethoxy-2,6-difluorobenzyl)-1H-indazol-3-yl]-N-(pyridin-4-yl)-5-(2,2,2-trifluoroethoxy) pyrimidin-4-amine] | 10 nM | ≥ 10000 nM | – | –
10 | COc1cnc(-c2nn(Cc3c(F)cc(C4CC4)cc3F)c3ccccc23)nc1Nc1ccncc1 [Example 6-1, 2-[1-(4-cyclopropyl-2,6-difluorobenzyl)-1H-indazol-3-yl]-5-methoxy-N-(pyridin-4-yl)pyrimidin-4-amine] | 3.9 nM | 3100 nM | – | –
11 | COc1cc(Cn2nc(-c3ncc(OC)c(Nc4ccncc4)n3)c3ccccc32)cc(OC)c1 [Example 2-29-1, 2-[1-(3,5-dimethoxybenzyl)-1H-indazol-3-yl]-5-methoxy-N-(pyridin-4-yl)pyrimidin-4-amine] | 23 nM | 9000 nM | – | –
12 | COc1cnc(-c2nn(Cc3ccc(Cl)cc3Cl)c3ccccc23)nc1Nc1ccncc1 [Example 2-19-1, 2-[1-(2,4-dichlorobenzyl)-1H-indazol-3-yl]-5-methoxy-N-(pyridin-4-yl)pyrimidin-4-amine] | 10 nM | 3400 nM | – | –
13 | CCOc1ccc(Cn2nc(-c3ncc(OC)c(Nc4ccncc4)n3)c3ccccc32)c(F)c1F [Example 2-14-1, 2-[1-(4-ethoxy-2,3-difluorobenzyl)-1H-indazol-3-yl]-5-methoxy-N-(pyridin-4-yl)pyrimidin-4-amine] | 8.3 nM | – | 4700 nM | –
14 | COc1ccc(Cn2nc(-c3ncc(OC)c(Nc4ccnc(F)c4)n3)c3ccccc32)cc1 [Example 34-1, N-(2-fluoropyridin-4-yl)-5-methoxy-2-[1-(4-methoxybenzyl)-1H-indazol-3-yl]pyrimidin-4-amine] | 230 nM | – | ≥ 10000 nM | –
15 | COc1cnc(-c2nn(Cc3ccc(F)cc3)c3ccccc23)nc1Nc1ccncc1 [Example 2-36-1, 2-[1-(4-fluorobenzyl)-1H-indazol-3-yl]-5-methoxy-N-(pyridin-4-yl)pyrimidin-4-amine] | 58 nM | ≥ 10000 nM | – | –
16 | COc1ccc(Cn2nc(-c3ncc(OC)c(Nc4ccncc4F)n3)c3ccccc32)cc1 [Example 34-3, N-(3-fluoropyridin-4-yl)-5-methoxy-2-[1-(4-methoxybenzyl)-1H-indazol-3-yl]pyrimidin-4-amine] | 28 nM | – | 8700 nM | –

Row | Compound | IC50 [1] | IC50 (HeLa cells; [2]) | IC50 (HeLa cells; Homo sapiens, 96 h) | IC50 (HeLa cells; 4 days, crystal violet)
17 | CCOC(=O)c1cnccc1Nc1nc(-c2nn(Cc3ccccc3F)c3ccccc23)ncc1O [Example 30-3, ethyl 4-({2-[1-(2-fluorobenzyl)-1H-indazol-3-yl]-5-hydroxypyrimidin-4-yl}amino)pyridine-3-carboxylate] | 8.4 nM | ≥ 10000 nM | – | –
18 | COc1cnc(-c2nn(Cc3c(Cl)cccc3C(F)(F)F)c3ccccc23)nc1Nc1ccncc1 [Example 2-30-1, 2-{1-[2-chloro-6-(trifluoromethyl)benzyl]-1H-indazol-3-yl}-5-methoxy-N-(pyridin-4-yl)pyrimidin-4-amine] | 23 nM | 2200 nM | – | –
19 | CCOc1cc(F)c(Cn2nc(-c3ncc(OCC(=O)O)c(Nc4ccncc4)n3)c3ccccc32)c(F)c1 [Example 19-2] | 6.3 nM | – | – | ≥ 10000 nM
20 | OCCOc1cnc(-c2nn(Cc3ccccc3F)c3ccccc23)nc1Nc1ccncc1 [Example 13-2, 2-({2-[1-(2-fluorobenzyl)-1H-indazol-3-yl]-4-(pyridin-4-ylamino)pyrimidin-5-yl}oxy)ethanol] | 7.2 nM | – | 9600 nM | –
21 | COc1cnc(-c2nn(Cc3c(Cl)ccc(CO)c3Cl)c3ccccc23)nc1Nc1ccncc1 [Example 8-1, [2,4-dichloro-3-({3-[5-methoxy-4-(pyridin-4-ylamino)pyrimidin-2-yl]-1H-indazol-1-yl}methyl)phenyl]methanol] | 7.4 nM | – | – | 3200 nM
22 | COc1cnc(-c2nn(Cc3ccc(S(=O)(=O)N4CCOCC4)cc3)c3ccccc23)nc1Nc1ccncc1 [Example 2-43-1, 5-methoxy-2-{1-[4-(morpholin-4-ylsulfonyl)benzyl]-1H-indazol-3-yl}-N-(pyridin-4-yl)pyrimidin-4-amine] | 1200 nM | ≥ 10000 nM | – | –
23 | NS(=O)(=O)COc1cnc(-c2nn(Cc3ccccc3F)c3ccccc23)nc1Nc1ccncc1 [Example 4-3, 1-({2-[1-(2-fluorobenzyl)-1H-indazol-3-yl]-4-(pyridin-4-ylamino)pyrimidin-5-yl}oxy)methane-sulfonamide] | 7.5 nM | – | 14000 nM | –
24 | CCOc1cc(F)c(Cn2nc(-c3ncc(OC)c(Nc4ccncc4C(N)=O)n3)c3ccccc32)c(F)c1 [Example 25-3, 4-({2-[1-(4-ethoxy-2,6-difluorobenzyl)-1H-indazol-3-yl]-5-methoxypyrimidin-4-yl}amino)pyridine-3-carboxamide] | 8.8 nM | 4400 nM | – | –
25 | CCOc1cc(F)c(Cn2nc(-c3nccc(N(C(=O)C4CCOCC4)c4ccncc4)n3)c3ccccc32)c(F)c1 [Example 16-3, N-{2-[1-(4-ethoxy-2,6-difluorobenzyl)-1H-indazol-3-yl]pyrimidin-4-yl}-N-(pyridin-4-yl)tetrahydro-2H-pyran-4-carboxamide] | 210 nM | – | 4100 nM | –
26 | COc1ccc(Cn2nc(-c3ncc(OC)c(Nc4ccncc4)n3)c3ccccc32)cc1 [Example 2-23-1, 5-methoxy-2-[1-(4-methoxybenzyl)-1H-indazol-3-yl]-N-(pyridin-4-yl)pyrimidin-4-amine] | 13 nM | – | 9300 nM | –
27 | CCOc1cc(F)c(Cn2nc(-c3ncc(O)c(Nc4ccncc4)n3)c3ccccc32)c(F)c1 [Example 3-1, 2-[1-(4-ethoxy-2,6-difluorobenzyl)-1H-indazol-3-yl]-4-(pyridin-4-ylamino)pyrimidin-5-ol] | 4.7 nM | – | ≥ 10000 nM | –
28 | CCOc1cc(F)c(Cn2nc(-c3ncc(OC)c(Nc4c(F)cncc4F)n3)c3ccccc32)c(F)c1 [Example 39-2] | 670 nM | – | – | ≥ 10000 nM
29 | O=C(OCCO)c1cnccc1Nc1nc(-c2nn(Cc3ccccc3F)c3ccccc23)ncc1OCCO [Example 13-6, 2-hydroxyethyl 4-({2-[1-(2-fluorobenzyl)-1H-indazol-3-yl]-5-(2-hydroxyethoxy)pyrimidin-4-yl}amino)pyridine-3-carboxylate] | 8.6 nM | ≥ 10000 nM | – | –
30 | COc1ccc(Cn2nc(-c3ncc(OC4CC4)c(Nc4ccncc4)n3)c3ccccc32)cc1 [Example 14-1, 5-(cyclopropyloxy)-2-[1-(4-methoxybenzyl)-1H-indazol-3-yl]-N-(pyridin-4-yl)pyrimidin-4-amine] | 3300 nM | – | ≥ 10000 nM | –
31 | COc1cnc(-c2nn(Cc3ccccc3C#N)c3ccccc23)nc1Nc1ccncc1 [Example 2-5-3, 2-({3-[5-methoxy-4-(pyridin-4-ylamino)pyrimidin-2-yl]-1H-indazol-1-yl}methyl) benzonitrile] | 21 nM | – | ≥ 10000 nM | –
32 | C#Cc1ccc(Cn2nc(-c3ncc(OC)c(Nc4ccncc4)n3)c3ccccc32)c(F)c1 [Example 21-1, 2-[1-(4-ethynyl-2-fluorobenzyl)-1H-indazol-3-yl]-5-methoxy-N-(pyridin-4-yl)pyrimidin-4-amine] | 28 nM | 3800 nM | – | –
